The data set can be described thus: Propofol phase-solubility tests with cyclodextrins according to the method of Higuchi and Connors. The note with it: 25 °C, water, thermodynamic from solid. Here is the method:
A large excess of propofol is added to 1.4 ml of the appropriate cyclodextrin solution. The resulting mixtures are vortexed for about 5 min and stirred at a temperature 25±0.5° C. for 24 hours. About 1 ml of the solution is transferred using a Pasteur pipette into an Eppendorf tube. Afterwards, these tubes are centrifuged for 30 min at 13,200 rpm. Afterwards, 40 μl of the aqueous phase are sampled and then diluted to 1/10 in ethanol and to 40/1,000 in a solution of acetonitrile and an ammonia buffer pH 9.2. Afterwards, these samples are filtered through a 0.2 μm filter and then put in vial before analysis by high-performance liquid chromatography with UV detection. The injection volume was 10 microliters (cf. injection loop). […] The stability constants Kc are estimated from the slope of the line of the phase-solubility diagram according to the following equation: Kc=slope/S0 (1−slope).
The stability constant Kc is calculated from the slope of the line of the phase-solubility diagram according to the following equation: Kc=slope/S0(1−slope).
The used 2-hydropropyl-β-cyclodextrin is still that one selected before (HPB-LB). […]
The results of the solubility tests have been analysed again more particularly with the complexation efficiency (CE), calculated using the equation: […]

Our source for the solubility values is patent publication US20240050588A1, “PHARMACEUTICAL COMPOSITION CONTAINING PROPOFOL, A CYCLODEXTRIN OR A CYCLODEXTRIN DERIVATIVE AND A PHARMACEUTICALLY ACCEPTABLE SALT” (CENTRE HOSPITALIER UNIVERSITAIRE DE LILLE, priority 2020, published 2024).

Structures are written as SMILES. “And” between values parts separate entries of the source, which are not always exact repeats. Identical values can stand only once.

Usually solubility stands for how much of the substance goes into solution per volume. Read a high solubility as a readily soluble substance. In the case of `CC(C)c1cccc(C(C)C)c1O` [propofol, 2,6-bis(propan-2-yl)phenol], the solubility at 24 h was 1070 µM and 190 µg/mL.
